Measurements from patent US6455587B1 (priority 2000, dated 2002).

What follows are compounds tested against T1, recombinant HIV-1 protease (Human immunodeficiency virus type 1 group M subtype B, UniProt P04585) (assay: Enzymatic fluorometric (FRET) assay for determining the inhibition constant (Ki) against HIV protease). Conditions: fluorometric FRET assay, recombinant HIV-1 protease, pH 4.7, 31° C.; read-out: Ki.
T1 construct: recombinant HIV-1 protease (final concentration 2.18 nM) purchased from Bachem Bioscience; purchased Bachem Bioscience
Type: biochemical
Outline: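 FRET substrate (EDANS/DABCYL) cleavage followed at 31° C., ex 340/em 485 nm. Initial velocity recorded over 4 min, then inhibitor added at several concentrations and rate read another 4 min. Ki derived from v0 and vi via Henderson equation using [S] and Km.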

`CC(C)CN(C(CCCCNC(=O)OCc1ccccc1)C(=O)O)S(=O)(=O)c1ccc(Cl)cc1` (stereo not shown) [Compound 4] and `COc1ccc(OC)c(C=CC(=O)NCCCC[C@@H](C(=O)O)N(CC(C)C)S(=O)(=O)c2ccc([N+](=O)[O-])cc2)c1` [Compound 190, Nα-Isobutyl-Nα-(4-nitrobenzenesulfonyl)-Nε-(2,5-dimethoxycinnamoyl)-L-lysine] cannot be ordered by Ki: over 0.1 µM for the first, over 0.075 µM for the second.

`O=C(N[C@H](CO)CCCCNS(=O)(=O)c1ccc(Br)cc1)OCC1c2ccccc2-c2ccccc21` [Compound 22, (2S)-(9-Fluorenylmethoxycarbonylamino)-6-(4-bromobenzenesulfonylamino)-1-hexanol] and `O=C(N[C@@H](CNS(=O)(=O)c1ccc(Br)cc1)C(=O)O)OCC1c2ccccc2-c2ccccc21` [Compound 18, (S)-2-(9-Fluorenylmethoxycarbonylamino)-3-(4-bromobenzenesulfonylamino)-propanoic Acid] cannot be ordered by Ki: over 6 µM for the first, 75 µM for the second.
